Test results as given in the supplement of paper PMC10307832.

Key:
Experiment in all cases: relative viability (nuclei count vs DMSO), 5 days (fraction); higher = more cells survive
Vismodegib + Pictilisib = compound: CS(=O)(=O)c1ccc(C(=O)Nc2ccc(Cl)c(-c3ccccn3)c2)c(Cl)c1 [Vismodegib] + CS(=O)(=O)N1CCN(Cc2cc3nc(-c4cccc5[nH]ncc45)nc(N4CCOCC4)c3s2)CC1 [Pictilisib] (partner 1 µM)
How it was run: (§1)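 Five library-drug doses in √10 steps were combined with a fixed anchor-drug dose, or a single drug was given alone, by pin tool to lung cancer cell lines in 1536-well plates the day after seeding. Nuclei were stained and counted after 5 days. Relative viability is the nuclei count in treated wells over that in vehicle wells, taken as the median of duplicate plates.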

Vismodegib + Dasatinib = compound: CS(=O)(=O)c1ccc(C(=O)Nc2ccc(Cl)c(-c3ccccn3)c2)c(Cl)c1 [Vismodegib] + Cc1nc(Nc2ncc(C(=O)Nc3c(C)cccc3Cl)s2)cc(N2CCN(CCO)CC2)n1 [Dasatinib] (partner 0.075 µM)
How it was run: as §1

Vismodegib + AZD7762 = compound: CS(=O)(=O)c1ccc(C(=O)Nc2ccc(Cl)c(-c3ccccn3)c2)c(Cl)c1 [Vismodegib] + NC(=O)Nc1cc(-c2cccc(F)c2)sc1C(=O)N[C@H]1CCCNC1 [AZD7762] (partner 0.2 µM)
How it was run: as §1

VE-821 + Olaparib = compound: CS(=O)(=O)c1ccc(-c2cnc(N)c(C(=O)Nc3ccccc3)n2)cc1 [VE-821] + O=C(c1cc(Cc2n[nH]c(=O)c3ccccc23)ccc1F)N1CCN(C(=O)C2CC2)CC1 [Olaparib] (partner 8 µM)
How it was run: as §1

Cell Line | relative viability (Vismodegib + Pictilisib; first compound 0.08 µM) | relative viability (Vismodegib + Pictilisib; first compound 0.253 µM) | relative viability (Vismodegib + Pictilisib; first compound 0.8 µM) | relative viability (Vismodegib + Pictilisib; first compound 2.53 µM) | relative viability (Vismodegib + Pictilisib; first compound 8 µM) | relative viability (Vismodegib + Dasatinib; first compound 0.08 µM) | relative viability (Vismodegib + Dasatinib; first compound 0.253 µM) | relative viability (Vismodegib + Dasatinib; first compound 0.8 µM) | relative viability (Vismodegib + Dasatinib; first compound 2.53 µM) | relative viability (Vismodegib + Dasatinib; first compound 8 µM) | relative viability (Vismodegib + AZD7762; first compound 0.08 µM) | relative viability (Vismodegib + AZD7762; first compound 0.253 µM) | relative viability (Vismodegib + AZD7762; first compound 0.8 µM) | relative viability (Vismodegib + AZD7762; first compound 2.53 µM) | relative viability (Vismodegib + AZD7762; first compound 8 µM) | relative viability (VE-821 + Olaparib; first compound 0.08 µM) | relative viability (VE-821 + Olaparib; first compound 0.253 µM) | relative viability (VE-821 + Olaparib; first compound 0.8 µM) | relative viability (VE-821 + Olaparib; first compound 2.53 µM) | relative viability (VE-821 + Olaparib; first compound 8 µM)
NCI-H1734 | 0.429 | 0.446 | 0.429 | 0.469 | 0.512 | 0.44 | 0.498 | 0.482 | 0.446 | 0.537 | 0.575 | 0.447 | 0.552 | 0.556 | 0.488 | 0.708 | 0.673 | 0.558 | 0.498 | 0.303
NCI-H1755 | 0.43 | 0.406 | 0.471 | 0.448 | 0.449 | 0.423 | 0.392 | 0.412 | 0.448 | 0.441 | 0.453 | 0.568 | 0.515 | 0.449 | 0.41 | 0.928 | 0.859 | 0.854 | 0.893 | 0.719
NCI-H1792 | 0.28 | 0.299 | 0.23 | 0.227 | 0.28 | 0.697 | 0.726 | 0.673 | 0.505 | 0.655 | 0.682 | 0.679 | 0.677 | 0.724 | 0.729 | 0.632 | 0.507 | 0.364 | 0.417 | 0.201
NCI-H1793 |  | 0.413 | 0.411 | 0.367 | 0.325 |  | 0.408 | 0.374 | 0.416 | 0.365 |  | 0.569 | 0.409 | 0.389 | 0.327 | 1 | 0.878 |  | 0.763 | 0.547
NCI-H1915 | 0.997 | 1.01 | 0.851 | 0.826 | 0.727 | 0.346 | 0.296 | 0.295 | 0.266 | 0.326 | 0.724 | 0.667 | 0.714 | 0.716 | 0.749 | 0.274 | 0.274 | 0.201 | 0.202 | 0.152
